≈ marks a conversion by molar mass, not a printed value.
Legend:
B. subtilis 168 [1] = experiment: fitness (endpoint OD595 vs no drug) (fraction); higher = more growth
Method in brief: (§1)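 Each well of a 384-well plate received 30 µl of culture at OD595 0.01, or 55 µl for S. pneumoniae. TSB, LB Lennox or CY served as media at 37 °C. OD595 was taken every 30 min for 14 h and corrected by subtracting the first reading. Fitness is the optical density at stationary-phase entry divided by the robust mean of no-drug controls, capped at 1.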

S. pneumoniae D39V [2] = experiment: as above
Method in brief: as §1

S. aureus DSM 20231 [3] = experiment: as above
Method in brief: as §1

S. aureus Newman [4] = experiment: as above
Method in brief: as §1

B. subtilis 168 [5] = experiment: Bliss interaction score (quartile over a dose matrix) (fitness difference); higher = more antagonism (negative = synergy)
Method in brief: (§2)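 Growth in each well was taken as OD595 at entry into stationary phase. Dividing by the plate's robust no-drug mean and capping at 1 gave fitness, and single-drug fitness was inferred from the combination data. The Bliss score, observed minus product-expected fitness, is summarised by quartiles over technical, biological and donor/recipient replicates.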

S. pneumoniae D39V [6] = experiment: as above
Method in brief: as §2

S. aureus DSM 20231 [7] = experiment: as above
Method in brief: as §2

S. aureus Newman [8] = experiment: as above
Method in brief: as §2

B. subtilis 168 [9] = test system: B. subtilis 168
S. pneumoniae D39V [10] = test system: S. pneumoniae D39V
S. aureus DSM 20231 [11] = test system: S. aureus DSM 20231
S. aureus Newman [12] = test system: S. aureus Newman
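Throughout, for Bliss interaction score (quartile over a dose matrix): first quartile when negative (synergy) and third quartile when positive (antagonism).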

COc1ccc(C[C@H](N)C(=O)N[C@H]2[C@@H](O)[C@H](n3cnc4c(N(C)C)ncnc43)O[C@@H]2CO)cc1 [Puromycin] + CN1C2=CC=CC=C2N=C3C1=CC=CC3=O [Pyocyanin]
fitness
Conditions	first compound 0.39 µg/mL	first compound 0.78 µg/mL	first compound 1 µg/mL	first compound 1.56 µg/mL	first compound 2 µg/mL	first compound 4 µg/mL
B. subtilis 168 [1], partner 1.25 µg/mL	0.879	0.847	–	0.89	–	–
B. subtilis 168 [1], partner 2.5 µg/mL	0.875	0.812	–	0.823	–	–
B. subtilis 168 [1], partner 5 µg/mL	0.679	0.666	–	0.656	–	–
S. aureus DSM 20231 [3], partner 1.25 µg/mL	0.86	0.945	–	≥ 1	–	–
S. aureus DSM 20231 [3], partner 2.5 µg/mL	0.96	0.957	–	0.967	–	–
S. aureus DSM 20231 [3], partner 5 µg/mL	0.67	0.725	–	0.681	–	–
S. aureus Newman [4], partner 1.25 µg/mL	0.907	0.902	–	0.918	–	–
S. aureus Newman [4], partner 2.5 µg/mL	0.785	0.824	–	0.845	–	–
S. aureus Newman [4], partner 5 µg/mL	0.476	0.44	–	0.417	–	–
S. pneumoniae D39V [2], partner 0.325 µg/mL	–	–	0.977	–	0.975	0.792
S. pneumoniae D39V [2], partner 0.65 µg/mL	–	–	0.926	–	0.866	0.697

one replicate
Conditions	fitness
S. aureus DSM 20231 [3], first compound 3.12 µg/mL, partner 1.25 µg/mL	0.946
S. aureus DSM 20231 [3], first compound 3.12 µg/mL, partner 2.5 µg/mL	0.844
S. aureus DSM 20231 [3], first compound 3.12 µg/mL, partner 5 µg/mL	0.482
S. aureus DSM 20231 [3], first compound 6.24 µg/mL, partner 1.25 µg/mL	0.756
S. aureus DSM 20231 [3], first compound 6.24 µg/mL, partner 2.5 µg/mL	0.632
S. aureus DSM 20231 [3], first compound 6.24 µg/mL, partner 5 µg/mL	0.248
S. pneumoniae D39V [2], first compound 1 µg/mL, partner 1.3 µg/mL	0.394
S. pneumoniae D39V [2], first compound 2 µg/mL, partner 1.3 µg/mL	0.34
S. pneumoniae D39V [2], first compound 4 µg/mL, partner 1.3 µg/mL	0.294

Conditions	Bliss interaction score
B. subtilis 168 [5]	-0.0765
S. aureus DSM 20231 [7]	0.0671
S. aureus Newman [8]	0.104
S. pneumoniae D39V [6]	-0.117

COc1ccc(C[C@H](N)C(=O)N[C@H]2[C@@H](O)[C@H](n3cnc4c(N(C)C)ncnc43)O[C@@H]2CO)cc1 [Puromycin] + CN(N=O)C(=O)N[C@@H](C=O)[C@@H](O)[C@H](O)[C@H](O)CO [Streptozotocin]
fitness, one replicate
Conditions	partner 0.15 µg/mL	partner 0.3 µg/mL	partner 0.6 µg/mL
B. subtilis 168 [1], first compound 0.39 µg/mL	0.999	0.978	≥ 1
B. subtilis 168 [1], first compound 0.78 µg/mL	≥ 1	≥ 1	0.981
B. subtilis 168 [1], first compound 1.56 µg/mL	≥ 1	0.925	0.938
S. aureus DSM 20231 [3], first compound 3.12 µg/mL	0.907	0.853	0.806
S. aureus DSM 20231 [3], first compound 6.24 µg/mL	0.706	0.6	0.549

fitness
Conditions	first compound 0.39 µg/mL	first compound 0.78 µg/mL	first compound 1 µg/mL	first compound 1.56 µg/mL	first compound 2 µg/mL	first compound 4 µg/mL
S. aureus DSM 20231 [3], partner 0.15 µg/mL	0.894	0.887	–	0.937	–	–
S. aureus DSM 20231 [3], partner 0.3 µg/mL	0.863	0.857	–	0.812	–	–
S. aureus DSM 20231 [3], partner 0.6 µg/mL	0.714	0.772	–	0.705	–	–
S. aureus Newman [4], partner 0.15 µg/mL	0.912	0.835	–	0.871	–	–
S. aureus Newman [4], partner 0.3 µg/mL	0.737	0.7	–	0.706	–	–
S. aureus Newman [4], partner 0.6 µg/mL	0.595	0.534	–	0.559	–	–
S. pneumoniae D39V [2], partner 1.2 µg/mL	–	–	0.913	–	0.942	0.8
S. pneumoniae D39V [2], partner 2.4 µg/mL	–	–	0.943	–	0.935	0.806
S. pneumoniae D39V [2], partner 4.8 µg/mL	–	–	0.969	–	0.926	0.749

Conditions	Bliss interaction score
B. subtilis 168 [5]	0.0705
S. aureus DSM 20231 [7]	0.0762
S. aureus Newman [8]	0.0523
S. pneumoniae D39V [6]	0.0919

COc1ccc(C[C@H](N)C(=O)N[C@H]2[C@@H](O)[C@H](n3cnc4c(N(C)C)ncnc43)O[C@@H]2CO)cc1 [Puromycin] + CN[C@@H]1[C@H](O)[C@H](NC)[C@H]2O[C@@]3(O)C(=O)C[C@@H](C)O[C@H]3O[C@@H]2[C@H]1O [Spectinomycin]
fitness
Conditions	first compound 0.39 µg/mL	first compound 0.78 µg/mL	first compound 1 µg/mL	first compound 1.56 µg/mL	first compound 2 µg/mL	first compound 4 µg/mL
B. subtilis 168 [1], partner 2 µg/mL	0.951	0.94	–	0.979	–	–
B. subtilis 168 [1], partner 4 µg/mL	0.948	0.952	–	0.963	–	–
B. subtilis 168 [1], partner 8 µg/mL	0.859	0.881	–	0.848	–	–
S. aureus DSM 20231 [3], partner 4 µg/mL	0.959	0.943	–	0.965	–	–
S. aureus DSM 20231 [3], partner 8 µg/mL	0.957	0.998	–	0.956	–	–
S. aureus DSM 20231 [3], partner 16 µg/mL	0.943	0.884	–	0.888	–	–
S. aureus Newman [4], partner 4 µg/mL	0.912	0.922	–	0.964	–	–
S. aureus Newman [4], partner 8 µg/mL	0.962	0.95	–	0.937	–	–
S. aureus Newman [4], partner 16 µg/mL	0.914	0.904	–	0.873	–	–
S. pneumoniae D39V [2], partner 4 µg/mL	–	–	0.931	–	0.951	0.772
S. pneumoniae D39V [2], partner 8 µg/mL	–	–	0.877	–	0.892	0.728

one replicate
Conditions	fitness
S. aureus DSM 20231 [3], first compound 0.39 µg/mL, partner 32 µg/mL	0.741
S. aureus DSM 20231 [3], first compound 0.39 µg/mL, partner 64 µg/mL	0.11
S. aureus DSM 20231 [3], first compound 0.78 µg/mL, partner 32 µg/mL	0.802
S. aureus DSM 20231 [3], first compound 0.78 µg/mL, partner 64 µg/mL	0.172
S. aureus DSM 20231 [3], first compound 1.56 µg/mL, partner 32 µg/mL	0.757
S. aureus DSM 20231 [3], first compound 1.56 µg/mL, partner 64 µg/mL	0.142
S. aureus DSM 20231 [3], first compound 3.12 µg/mL, partner 4 µg/mL	0.923
S. aureus DSM 20231 [3], first compound 3.12 µg/mL, partner 8 µg/mL	0.948
S. aureus DSM 20231 [3], first compound 3.12 µg/mL, partner 16 µg/mL	0.794
S. aureus DSM 20231 [3], first compound 6.24 µg/mL, partner 4 µg/mL	0.629
S. aureus DSM 20231 [3], first compound 6.24 µg/mL, partner 8 µg/mL	0.347
S. aureus DSM 20231 [3], first compound 6.24 µg/mL, partner 16 µg/mL	0.183
S. aureus Newman [4], first compound 0.39 µg/mL, partner 32 µg/mL	0.664
S. aureus Newman [4], first compound 0.39 µg/mL, partner 64 µg/mL	0.15
S. aureus Newman [4], first compound 0.78 µg/mL, partner 32 µg/mL	0.618
S. aureus Newman [4], first compound 0.78 µg/mL, partner 64 µg/mL	0.0783
S. aureus Newman [4], first compound 1.56 µg/mL, partner 32 µg/mL	0.569
S. aureus Newman [4], first compound 1.56 µg/mL, partner 64 µg/mL	0.0656
S. pneumoniae D39V [2], first compound 1 µg/mL, partner 16 µg/mL	0.867
S. pneumoniae D39V [2], first compound 2 µg/mL, partner 16 µg/mL	0.863
S. pneumoniae D39V [2], first compound 4 µg/mL, partner 16 µg/mL	0.613

Conditions	Bliss interaction score
B. subtilis 168 [5]	0.0392
S. aureus DSM 20231 [7]	0.0575
S. aureus Newman [8]	0.0745
S. pneumoniae D39V [6]	0.0718

COc1ccc(C[C@H](N)C(=O)N[C@H]2[C@@H](O)[C@H](n3cnc4c(N(C)C)ncnc43)O[C@@H]2CO)cc1 [Puromycin] + Cc1cc(NS(=O)(=O)c2ccc(N)cc2)no1 [Sulfamethoxazol]
one replicate
Conditions	fitness
B. subtilis 168 [1], first compound 0.39 µg/mL, partner 0.5 µg/mL	≥ 1
B. subtilis 168 [1], first compound 0.78 µg/mL, partner 0.5 µg/mL	0.996
B. subtilis 168 [1], first compound 1.56 µg/mL, partner 0.5 µg/mL	0.992
S. aureus DSM 20231 [3], first compound 3.12 µg/mL, partner 1 µg/mL	0.884
S. aureus DSM 20231 [3], first compound 3.12 µg/mL, partner 2 µg/mL	0.864
S. aureus DSM 20231 [3], first compound 3.12 µg/mL, partner 4 µg/mL	0.969
S. aureus DSM 20231 [3], first compound 6.24 µg/mL, partner 1 µg/mL	0.722
S. aureus DSM 20231 [3], first compound 6.24 µg/mL, partner 2 µg/mL	0.706
S. aureus DSM 20231 [3], first compound 6.24 µg/mL, partner 4 µg/mL	0.736
S. aureus Newman [4], first compound 0.39 µg/mL, partner 8 µg/mL	0.916
S. aureus Newman [4], first compound 0.78 µg/mL, partner 8 µg/mL	0.931
S. aureus Newman [4], first compound 1.56 µg/mL, partner 8 µg/mL	0.983

fitness
Conditions	partner 1 µg/mL	partner 2 µg/mL	partner 4 µg/mL
B. subtilis 168 [1], first compound 0.39 µg/mL	0.934	0.947	0.891
B. subtilis 168 [1], first compound 0.78 µg/mL	0.921	0.863	0.949
B. subtilis 168 [1], first compound 1.56 µg/mL	0.968	0.888	0.941
S. aureus DSM 20231 [3], first compound 0.39 µg/mL	0.998	0.996	≥ 1
S. aureus DSM 20231 [3], first compound 0.78 µg/mL	0.988	≥ 1	0.995
S. aureus DSM 20231 [3], first compound 1.56 µg/mL	0.952	0.992	0.961
S. aureus Newman [4], first compound 0.78 µg/mL	0.996	0.943	0.958
S. aureus Newman [4], first compound 1.56 µg/mL	0.966	0.968	≥ 1
S. pneumoniae D39V [2], first compound 1 µg/mL	0.945	0.934	0.961
S. pneumoniae D39V [2], first compound 2 µg/mL	0.948	0.927	0.932
S. pneumoniae D39V [2], first compound 4 µg/mL	0.799	0.807	0.947

Conditions	Bliss interaction score
B. subtilis 168 [5]	0.0514
S. aureus DSM 20231 [7]	0.0554
S. aureus Newman [8]	0.0386
S. pneumoniae D39V [6]	0.113

CN(C)c1cc(NC(=O)CNC(C)(C)C)c(O)c2c1C[C@H]1C[C@H]3[C@H](N(C)C)C(O)=C(C(N)=O)C(=O)[C@@]3(O)C(O)=C1C2=O [Tigecycline]
Conditions	fitness
B. subtilis 168 [1], 0.039 µg/mL	0.953
B. subtilis 168 [1], 0.078 µg/mL	0.95
B. subtilis 168 [1], 0.156 µg/mL	0.933
S. aureus Newman [4], 0.039 µg/mL	0.975
S. aureus Newman [4], 0.078 µg/mL	0.959
S. aureus Newman [4], 0.156 µg/mL	0.973
S. pneumoniae D39V [2], 0.325 µg/mL	0.971
S. pneumoniae D39V [2], 0.65 µg/mL	0.959
S. pneumoniae D39V [2], 1.3 µg/mL	0.966
S. pneumoniae D39V [2], 2.6 µg/mL	0.965

Conditions	MIC [µg/mL]
B. subtilis 168 [9]	0.312 (≈ 0.533 µM)
S. aureus DSM 20231 [11]	0.18 (≈ 0.307 µM)
S. aureus Newman [12]	0.18 (≈ 0.307 µM)
S. pneumoniae D39V [10]	3 (≈ 5.12 µM)
